The subject of assay [1] is Male CD Charles River rats. The assay is described as follows: Hypotensive effect in anesthetized rats (carotid pressure after intravenous injection). The assay is classed as in vivo, rat. The settings on record: dose of 2 mg/kg, injected in the right femoral vein, in 0.9% NaCl, urethane-anesthetized rats. Here is the method: After incannulation of the trachea, the right carotid was isolated and connected by a cannula to a pressure measurement device. The isolated left carotid was used to record the flow by means of an electromagnetic flussimeter. Other parameters recorded were: dp/dt, ECG (electrocardiogram), BPM (beats per minute). All values were recorded on an 8 channel Hewlett Packard polygraph.
(§1) The tripeptides were dissolved in 0.9% NaCl and injected in the right femoral vein.

The test system of assay [2] is female Swiss albino mice. The assay is described as follows: Analgesic activity, writhing test with 3% aqueous acetic acid. The settings on record: for Analgesic activity (mean reduction of number of contorsions vs controls): 20 minute observation. The assay is classed as in vivo, mouse. The protocol: This activity was evaluated with the writhing test, using a 3% aqueous acetic acid solution as pain-causing agent, injected intraperitoneally (0.1 ml/10 g). The experiment was performed with 80 female Swiss albino mice weighing 18-24 g, fasting for three hours and divided into groups of 20 animals each: (1) controls, treated with 0.9% NaCl; (2) those treated with the test tripeptide (10 mg/kg intraperitoneally); (3) those treated with adenosine (2 mg/kg intraperitoneally); (4) those treated with the tripeptide (10 mg/kg intraperitoneally) and adenosine (2 mg/kg intraperitoneally). In groups 1 and 2 the substances were administered 40 minutes before the acetic acid; in group 3 the adenosine was administered 10 minutes before the acetic acid; in group 4 the adenosine was administered 30 minutes after the tripeptide and 10 minutes before the acetic acid. After the acetic acid innoculation, the animals were placed in groups of 5 in plastic cages, and observed for a 20 minute period. The number of contorsions the animals made during that period was recorded. Based on the mean reduction of the number of contorsions of the treated animals with respect to the controls, the analgesic action of the test substance was calculated.

The test system of assay [3] is Male CD Charles River rats. The assay is described as follows: Potentiation of the hypotensive effect of adenosine. Format: in vivo, rat. The settings on record: for Effect on the hypotensive effect of adenosine: tripeptide 0.1 mg/kg in the vein, 15 minutes before adenosine (0.15 mg/kg in the vein). Here is the method: Male CD Charles River rats weighing 220-250 g were used, anesthetized with ethyl urethane (1.75 g/kg intraperitoneally). After incannulation of the trachea, the right carotid was isolated and connected by a cannula to a pressure measurement device. The isolated left carotid was used to record the flow by means of an electromagnetic flussimeter. Other parameters recorded were: dp/dt, ECG (electrocardiogram), BPM (beats per minute). All values were recorded on an 8 channel Hewlett Packard polygraph.
as §1
Any interference of synthesized peptides with the hemodynamic effects of adenosine would be shown using the method described. […] In this case the compound according to the invention was pGLU-GLU-TRP.

Molecules are shown by their SMILES. Where a SMILES comes first, the peptide text is derived from it. [ ]: non-standard residue; d: D form. pGlu = O=C1CC[C@@H](C(=O)O)N1

In the case of `CC(C)C[C@H](NC(=O)[C@@H]1CCC(=O)N1)C(=O)N[C@@H](Cc1c[nH]c2ccccc12)C(=O)O` [pGLU--LEU--TRP, pGLU-LEU-TRP] ([pGlu]-Leu-Trp-OH), in assay [1], the “Δ on maximum (lowering of the maximum pressure)” value was found to be 30 mm Hg and the “Δ on minimum (lowering of the minimum pressure)” value turned out to be 30 mm Hg.

In the case of `C[C@H](NC(=O)[C@@H]1CCC(=O)N1)C(=O)N[C@@H](Cc1c[nH]c2ccccc12)C(=O)O` [pGLU--ALA--TRP, pGLU-ALA-TRP] ([pGlu]-Ala-Trp-OH), in assay [1], the “Δ on maximum (lowering of the maximum pressure)” value was 10 mm Hg and the “Δ on minimum (lowering of the minimum pressure)” value was found to be 20 mm Hg.

Consider `O=C(CNC(=O)[C@@H]1CCC(=O)N1)N[C@@H](Cc1c[nH]c2ccccc12)C(=O)O` [pGLU--GLY--TRP, p-GLU-GLY-TRP] ([pGlu]-Gly-Trp-OH), for which, in assay [1], the “Δ on maximum (lowering of the maximum pressure)” value is listed as 25 mm Hg and the “Δ on minimum (lowering of the minimum pressure)” value was found to be 35 mm Hg.

Take `O=C1CC[C@@H](C(=O)N[C@@H](CO)C(=O)N[C@@H](Cc2c[nH]c3ccccc23)C(=O)O)N1` [pGLU--SER--TRP, pGLU-SER-TRP] ([pGlu]-Ser-Trp-OH): in assay [1], the “Δ on maximum (lowering of the maximum pressure)” value is on record as 45 mm Hg and the “Δ on minimum (lowering of the minimum pressure)” value was 35 mm Hg.

On to `CCOC(=O)[C@H](Cc1c[nH]c2ccccc12)NC(=O)[C@@H](NC(=O)[C@@H]1CCC(=O)N1)[C@@H](C)CC` [pGLU--ILE--TRP--OEt] ([pGlu]-Ile-Trp-OEt), for which, in assay [1], the “Δ on maximum (lowering of the maximum pressure)” value was 30 mm Hg and the “Δ on minimum (lowering of the minimum pressure)” value came out at 25 mm Hg.

In the case of `Nc1ncnc2c1ncn2[C@@H]1O[C@H](CO)[C@@H](O)[C@H]1O` [adenosine, reference compound], the “Analgesic activity (mean reduction of number of contorsions vs controls)” value in assay [2] (adenosine 2 mg/kg intraperitoneally, 10 minutes before acetic acid) turned out to be 20%. In assay [3] (0.15 mg/kg in the vein), the “Hemodynamic effect of adenosine alone” value is listed as “transient hypotensive effect”.

In the case of `O=C(O)C[C@H](NC(=O)[C@@H]1CCC(=O)N1)C(=O)N[C@@H](Cc1c[nH]c2ccccc12)C(=O)O` [pGLU--ASP--TRP, pGLU-ASP-TRP] ([pGlu]-Asp-Trp-OH), in assay [1], the “Δ on maximum (lowering of the maximum pressure)” value stood at 10 mm Hg and the “Δ on minimum (lowering of the minimum pressure)” value came out at 10 mm Hg.

Regarding `NC(=O)CC[C@H](NC(=O)[C@@H]1CCC(=O)N1)C(=O)N[C@@H](Cc1c[nH]c2ccccc12)C(=O)O` [pGLU--GLN--TRP, pGLU-GLN-TRP] ([pGlu]-Gln-Trp-OH), in assay [1], the “Δ on maximum (lowering of the maximum pressure)” value stood at 20 mm Hg and the “Δ on minimum (lowering of the minimum pressure)” value is on record as 10 mm Hg.

Take `O=C(O)CC[C@H](NC(=O)[C@@H]1CCC(=O)N1)C(=O)N[C@@H](Cc1c[nH]c2ccccc12)C(=O)O` [pGLU--GLU--TRP, pGLU-GLU-TRP] ([pGlu]-Glu-Trp-OH): the “Effect on the hypotensive effect of adenosine” value in assay [3] was “potentiates and prolongs the hypotensive effect”. Besides, in assay [1], the “Δ on maximum (lowering of the maximum pressure)” value is given as 20 mm Hg and the “Δ on minimum (lowering of the minimum pressure)” value was 10 mm Hg.

As for `NC(=O)C[C@H](NC(=O)[C@@H]1CCC(=O)N1)C(=O)N[C@@H](Cc1c[nH]c2ccccc12)C(=O)O` [pGLU--ASN--TRP, pGLU-ASN-TRP] ([pGlu]-Asn-Trp-OH), the “Analgesic activity of tripeptide together with adenosine” value in assay [2] (tripeptide 10 mg/kg i.p. plus adenosine 2 mg/kg i.p. given 30 minutes after the tripeptide and 10 minutes before acetic acid) is given as “additive effect”. Also, the “Analgesic activity (mean reduction of number of contorsions vs controls)” value in assay [2] (tripeptide 10 mg/kg intraperitoneally, 40 minutes before acetic acid) turned out to be 25%. Also, the “Effect on the hypotensive effect of adenosine” value in assay [3] was “potentiates and prolongs the hypotensive effect”. Moreover, in assay [1], the “Δ on maximum (lowering of the maximum pressure)” value turned out to be 35 mm Hg and the “Δ on minimum (lowering of the minimum pressure)” value is listed as 20 mm Hg.

On to `NCCCC[C@H](NC(=O)[C@@H]1CCC(=O)N1)C(=O)N[C@@H](Cc1c[nH]c2ccccc12)C(=O)O` [pGLU--LYS--TRP, pGLU-LYS-TRP] ([pGlu]-Lys-Trp-OH), for which, in assay [1], the “Δ on maximum (lowering of the maximum pressure)” value is 35 mm Hg and the “Δ on minimum (lowering of the minimum pressure)” value is recorded as 25 mm Hg.

`CCOC(=O)[C@H](Cc1c[nH]c2ccccc12)NC(=O)[C@H](CC(C)C)NC(=O)[C@@H]1CCC(=O)N1` [pGLU--LEU--TRP--OEt, pGLU-LEU-TRP-OEt] ([pGlu]-Leu-Trp-OEt): in assay [1], the “Δ on maximum (lowering of the maximum pressure)” value is reported as 30 mm Hg and the “Δ on minimum (lowering of the minimum pressure)” value was determined as 20 mm Hg.

As to `N=C(N)NCCC[C@H](NC(=O)[C@@H]1CCC(=O)N1)C(=O)N[C@@H](Cc1c[nH]c2ccccc12)C(=O)O` [pGLU--ARG--TRP, pGLU-ARG-TRP] ([pGlu]-Arg-Trp-OH), in assay [1], the “Δ on maximum (lowering of the maximum pressure)” value is 25 mm Hg and the “Δ on minimum (lowering of the minimum pressure)” value came to 15 mm Hg.

For the origin of these results see patent US4619916A, “Tripeptide compounds containing pyroglutamic acid and tryptophan, process for their production and therapeutic applications” (Polifarma S.p.A., priority 1984, dated 1986).
